{"source": "paper PMC11189555", "about": "“Aryl amino acetamides prevent Plasmodium falciparum ring development via targeting the lipid-transfer protein PfSTART1” (Nature Communications, 2024)", "key": {"[1]": {"system": "P. falciparum NF54 gametocytes fed to An. stephensi", "assay": "Standard membrane feeding assay (London School of Hygiene and Tropical Medicine)", "assay_type": "in vivo, Plasmodium falciparum", "settings": "W-991 1, 50, 100 nM; second insectary; Fig S7C-D", "procedure": "(§1) These assays were performed at the Walter and Eliza Hall Institute and at the London School of Hygiene and Tropical Medicine using slightly different approaches which are described in the Supplementary Information. […]\nGametocyte culturing and standard membrane feeding assay (London School of Hygiene and Tropical Medicine). P. falciparum NF54 gametocytes were prepared for blood-feeding to mosquitoes according to the method described by 13, with some slight modifications. Briefly, gametocyte cultures seeded at 2% overall parasitaemia and 4% haematocrit were maintained at 37 °C for 17 days with daily media changes.\nGametocyte functional viability was assessed by ex-flagellation assay at day 14 post induction, observed by light microscopy. An. stephensi (SD500 strain) were reared as […]\nGametocyte aliquots from a single NF54 culture, produced as above, were incubated […]\nor culture medium only (no -drug control) from day 14 until day 17 when SMFA was carried out. Fresh drug -containing media was provided each day during this exposure.\nPots of 70 -80 two- to five-day old female An. stephensi mosquitoes were allowed to feed on 500 µL of the respective culture+drug mixture, presented to each pot in a pre - heated 3D -printed water channel membrane feeder 15, until fully fed. […]"}, "[2]": {"system": "P. falciparum oocysts in mosquito midguts", "assay": "Standard membrane feeding assay: oocysts in mosquito midguts (Walter and Eliza Hall Institute)", "assay_type": "in vivo, Plasmodium falciparum", "settings": "for Oocyst counts from individual mosquitoes: 30 mosquitoes dissected", "procedure": "as §1\nwere aspirated into a cup and anesthetized by cooling to 4 °C until immobilized and kept on ice for the dissection. The mosquitoes were then dissected as previously described 12 and collected midguts were maintained in 1X PBS (Gibco) until they were stained with mercurochrome for 20 mins. […]"}, "[3]": {"system": "P. berghei sporozoites invading HC-04 human liver cells", "assay": "In vitro liver invasion assay", "assay_type": "cell-based, Plasmodium berghei", "procedure": "P. berghei ANKA constitutively expressing mCherry[82] was used for the in vitro liver stage invasion assay. Animals used for the generation of the sporozoites were 4- to 5-week-old male Swiss Webster mice and were purchased from the Monash Animal Services (Melbourne, Victoria, Australia) and housed at 22 to 25 °C on a 12 h light/dark cycle with 40-70% humidity at the School of Biosciences, The University of Melbourne, Australia. All animal experiments were in accordance with the Prevention of Cruelty to Animals Act 1986, the Prevention of Cruelty to Animals Regulations 2008, and National Health and Medical Research Council (2013) Australian code for the care and use of animals for scientific purposes. These experiments were reviewed and permitted by the Melbourne University Animal Ethics Committee (2015123).\nInfections of naïve Swiss mice were carried out by intraperitoneal (IP) inoculation obtained from a donor mouse between the first and fourth passages from cryopreserved stock. Parasitemia was monitored by Giemsa smear and exflagellation quantified 3 days post-infection. A. stephensi mosquitoes were allowed to feed on anaesthetised mice once the exflagellation rate was assessed between about 12 to 15 exflagellation events per 1 × 10^4 RBCs. Salivary glands of infected mosquitoes (days 17 to 24 post-infection) were isolated by dissection and parasites placed into RPMI-1640 media.\nThis was performed essentially as described[83] with the minor variations outlined in the Supplementary Information. […]\nIn vitro liver invasion assays. This was performed essentially as described16 with the following variations. In vitro human liver HCO4 cells (ATCC) were seeded at 1 × 10^5 cells/mL, grown for 24 h and then infected for 2 h with 30,000 Pb ANKA mCherry […]\nexpressing sporozoites. Following fixation, an IFA with anti -CSP antibody (1:500) followed by anti-mouse Alexafluor 488 (1:1 ,000; Invitrogen, Carlsbad, CA, USA) labels uninvaded parasites. Fluorescence signal was assessed using an Olympus CKX41 epifluorescence microscope. […]\nGametogenesis was then triggered by the addition of 10 μL ookinete medium (gametocyte culture medium supplemented with 100 μM xanthurenic acid and 0.27 µg/mL Cy3-labelled anti-Pfs25 antibody) to each well at room temperature. Plates were then cooled on a metal block at 4°C for four min to ensure even cooling and then stabilised for a further 4 min at 28°C. At 20 min post-induction, male gametogenesis was recorded in each well by automated brightfield microscopy using a x4 objective lens and 1.5x magnifier (x6 effective magnification). Afterward, plates were incubated in the dark at room temperature for 24 h and then female gametogenesis recorded in each well by automated fluorescence microscopy (anti-Pfs25-positive cells). All experiments were performed in quadruplicate with DMSO and cabamiquine (DDD107498)17 as negative and positive controls respectively. All data was evaluated in comparison to the positive and negative controls to calculate percentage inhibition of male and female gametocytes, and dose response analysis and IC50 calculation performed using GraphPad Prism. […]\nThe pellet was subjected to five"}}, "note": "Where “and” joins values, the source holds several entries; their conditions need not be identical. Equal entries are not always repeated. Entries after “also recorded” stand apart in the source; their conditions may differ.", "data": [{"smiles": "CC(C)(Nc1ccc(Cl)c(S(=O)(=O)N2CCOCC2)c1)C(=O)Nc1ccc(F)c(Cl)c1", "note": "[W-991]", "values": [{"measurement": "transmission to mosquitoes", "setting": "[1]", "value": "reduction in transmission"}, {"measurement": "reduction of the number of oocysts compared to untreated control", "setting": "[2]; 100 nM W-991, oocysts counted 7 days after feeding", "value": "> 20", "unit": "fold"}, {"measurement": "Oocyst counts from individual mosquitoes", "setting": "[2]; W-991 1 nM", "value": "38 and 56 and 49 and 30 and 0 and 4 and 7 and 9 and 6 and 8 and 12 and 35 and 22 and 20 and 13 and 50 and 15 and 10 and 31 and 18 and 11 and 24 and 1"}, {"measurement": "Oocyst counts from individual mosquitoes", "setting": "[2]; W-991 50 nM", "value": "9 and 3 and 23 and 27 and 20 and 4 and 12 and 0 and 7 and 10 and 2 and 31 and 22 and 1 and 17"}, {"measurement": "Oocyst counts from individual mosquitoes", "setting": "[2]; W-991 100 nM", "value": "6 and 0 and 2 and 16 and 24 and 8 and 11 and 5 and 1 and 7 and 12"}, {"measurement": "oocysts per mosquito", "setting": "[2]; W-991 1, 50, 100 nM, day 7 after feeding", "value": "dose-dependent decrease in oocysts per mosquito"}, {"measurement": "P. berghei sporozoite invasion", "setting": "[3]; 2 h incubation with HC-04 cells, p > 0.05", "value": "showed no defect in invasion; also recorded: had no impact"}, {"measurement": "Liver stage invasion assay: in", "setting": "[3]; count of sporozoites inside cells, Replicate 1 and 2", "value": "58 and 121"}, {"measurement": "Liver stage invasion assay: out", "setting": "[3]; count of sporozoites outside cells, Replicate 1 and 2", "value": "92 and 153"}, {"measurement": "Liver stage invasion assay: ratio", "setting": "[3]; in relative to in + out, Replicate 1 and 2", "value": "38.6667 and 44.1606"}]}]}
